These results are taken from patent US20220183997A1, “USE OF C[…] COMBINATION WITH ANTIBIOTICS” (GW Pharma Limited, priority 2019, published 2022).

Common to all, as to type: cell-based
In experiment [1] the test system is E. coli. The experiment is described as follows: Disc diffusion test, antibiotic discs with CBD disc. The conditions noted are these: antibiotic disc + 5 μM CBD disc vs antibiotic alone, 24 h. As for the experimental part: (§1) Discs were impregnated with the following […]: Colistin (10 μg/ml), Rifampicin (15 μg/ml), Erythromycin (15 μg/ml), Kanamycin (30 μg/ml) and Vancomycin (5 μg/ml).
(§2) Concentration of the antibiotics used was based on previously published and established MIC values (Moskowitz et al., 2010; Rojas et al., 2017; Goldstein et al., 2018; Maclayton et al., 2006, Kshetry et al., 2016).
(§3) E. coli and S. aureus agar plates were prepared for the disc diffusion test by soaking a sterile paper disc in 5 μM CBD and placing it in the middle of the agar plate, while the impregnated antibiotic discs were placed equidistant to the CBD disc. Zone of inhibition was assessed after 24 h.

Experiment [2] concerns S. aureus. The description is as above. The conditions noted are these: antibiotic disc + 5 μM CBD disc vs antibiotic alone, 24 h. As for the experimental part: as §1, §2, §3
Experiment [3] deals with E. coli. The experiment is described as follows: CBD-mediated OMV inhibition, OMV release quantified by nanoparticle tracking analysis. Conditions: 1 h, vs control. As for the experimental part:
(§4) E. coli and S. aureus cultures were maintained by plating on Mueller-Hinton agar plates and weekly sub-culturing was performed according to previously established methods (Iqbal et. al. 2013).
(§5) Before OMV isolation, all bacterial growth medium was pre-treated before use by ultracentrifugation at 75,000 g for 24 h, to ensure minimum contamination with extracellular vesicles (EVs) from the medium.
(§6) For OMV isolation, bacteria were grown in EV-free medium (as described above) for 24 h at 37° C. and 5% CO2, the culture medium collected and centrifuged once at 400 g for 10 min for removal of cells, followed by centrifugation at 4000 g for 1 h at 4° C. to remove cell debris. […]
(§7) Samples were diluted 1:50 in sterile-filtered EV-free DPBS and the number of particles in the field of view was maintained in the range of 20-40 with a minimum concentration of samples at 5×10^7 particles/ml. Camera settings were according to the manufacturer's instructions (Malvern), five 30 sec videos per sample were recorded and replicate histograms averaged. […]
(§8) The experiment was repeated three times and the OMVs were quantified using NTA analysis. Cell viability was assessed after 1 h treatment with CBD compared to controls and before the start of every experiment using viable count.

Experiment [4] concerns S. aureus. The experiment is described as follows: CBD-mediated membrane vesicle inhibition, release quantified by nanoparticle tracking analysis. The conditions noted are these: CBD 1 or 5 μM, 1 h. As for the experimental part: as §4, §5, §6, §7, §8

As for `NC[C@H]1O[C@H](O[C@H]2[C@H](O)[C@@H](O[C@H]3O[C@H](CO)[C@@H](O)[C@H](N)[C@H]3O)[C@H](N)C[C@@H]2N)[C@H](O)[C@@H](O)[C@@H]1O` [Kanamycin], the “increase of antibacterial effect (radius of zone of inhibition) when combined with CBD” value in experiment [1] came to 18%. For the same compound, in experiment [2], the “increase of antibiotic activity (radius of zone around diffusion disk) by CBD” value is given as 30%.
`CC[C@H]1OC(=O)[C@H](C)[C@@H](O[C@H]2C[C@@](C)(OC)[C@@H](O)[C@H](C)O2)[C@H](C)[C@@H](O[C@@H]2O[C@H](C)C[C@H](N(C)C)[C@H]2O)[C@](C)(O)C[C@@H](C)C(=O)[C@H](C)[C@@H](O)[C@]1(C)O` [Erythromycin]: the “increase of antibacterial effect (radius of zone of inhibition) when combined with CBD” value in experiment [1] was 35%. The “effect of CBD on antibacterial activity of antibiotic (in words)” value in experiment [2] is recorded as “reduced antibacterial effects”.
As to `C=C(C)[C@@H]1CCC(C)=C[C@H]1c1c(O)cc(CCCCC)cc1O` [CBD, Cannabidiol], the “reduction of total OMV release” value in experiment [3] (1 μM CBD) is recorded as 73%; in experiment [3] (5 μM CBD), 54%. Also, in experiment [4], the “effect on membrane vesicle release” value is recorded as “no effect”.
In the case of `CO[C@H]1/C=C/O[C@@]2(C)Oc3c(C)c(O)c4c(O)c(c(/C=N/N5CCN(C)CC5)c(O)c4c3C2=O)NC(=O)/C(C)=C\C=C\[C@H](C)[C@H](O)[C@@H](C)[C@@H](O)[C@@H](C)[C@H](OC(C)=O)[C@@H]1C` [Rifampicin], in experiment [1], the “increase of antibacterial effect (radius of zone of inhibition) when combined with CBD” value worked out at 50%.
As for `CN[C@H](CC(C)C)C(=O)N[C@H]1C(=O)N[C@@H](CC(N)=O)C(=O)N[C@H]2C(=O)N[C@H]3C(=O)N[C@H](C(=O)N[C@H](C(=O)O)c4cc(O)cc(O)c4-c4cc3ccc4O)[C@H](O)c3ccc(c(Cl)c3)Oc3cc2cc(c3O[C@@H]2O[C@H](CO)[C@@H](O)[C@H](O)[C@H]2O[C@H]2C[C@](C)(N)[C@H](O)[C@H](C)O2)Oc2ccc(cc2Cl)[C@H]1O` [Vancomycin], the “sensitisation to antibiotic by CBD (in words)” value in experiment [1] is listed as “did not increase antibacterial effects”.
Still for that read-out and setting: the entry for Colistin [Colisitin] is “not”.
